In patent US20230105869A1, “C5aR INHIBITOR REDUCTION OF URINARY sCD163” (CHEMOCENTRYX, INC., priority 2017, published 2023):
“Also recorded” adds a separate entry of the source. Marks after values point to notes of the source that are not given here.

How the values were obtained:
[1] = test system: urinary sCD163; assay: Urine sCD163/creatinine ratio (ELISA) in clinical trial of AAV patients; type: in vivo, human; conditions: for Urine sCD163/creatinine, Geo mean: all on IV cyclophosphamide or rituximab; for Time course of decrease of urine sCD163 (sCD163/creatinine), in words: versus baseline
Procedure: The clinical trial results presented herein comprised 3 patient groups: (1) Full dose prednisone (60 mg), standard of care; (2) Avacopan 30 mg b.i.d. plus low dose prednisone (20 mg); (3) Avacopan 30 mg b.i.d. plus no prednisone. All patients received either IV cyclophosphamide or IV rituximab. sCD163 (ELISA) and creatinine were measured pre-dose, and at days 8, 15, 29, 57, and 85. The groupings are further described below in Table 1. [table] Mid-stream urine samples were collected with a clean catch method and were shipped to the central laboratory refrigerated the same day for analysis of creatinine, albumin and UACR. Another fraction of urine was centrifuged at 1200 g and 2-8° C. for 10 minutes. Supernatant was aliquoted into cryovials and stored at -70° C. until analysis. Urine sCD163 and MCP-1 were analyzed by ELISA in complete subject sets using ELISA kits from R&D systems. Urine sCD163/creatinine ratios, UACR, and urine MCP-1/creatinine ratios were log transformed for normal distribution. Change from baseline in urine sCD163/creatinine ratios for each time point within group was analyzed by the mixed effects model for repeated measures. P<0.05 was considered as statistically significant.

[2] = test system: ANCA-associated vasculitis (AAV); assay: Disease activity and health-related quality of life in clinical trial of AAV patients; type: in vivo, human
Procedure: The clinical trial results presented herein comprised 3 patient groups: (1) Full dose prednisone (60 mg), standard of care; (2) Avacopan 30 mg b.i.d. plus low dose prednisone (20 mg); (3) Avacopan 30 mg b.i.d. plus no prednisone. All patients received either IV cyclophosphamide or IV rituximab. sCD163 (ELISA) and creatinine were measured pre-dose, and at days 8, 15, 29, 57, and 85. The groupings are further described below in Table 1. [table] […] Panel A plots the Birmingham Vasculitis Activity Score; Panel B plots the Urinary Albumin: creatinine Ratio; Panel C plots the Health-related quality-of-life measurement EQ-5D-5L visual analog scale , expressed as mean +/- SEM over the treatment period; Panel D and Panel E plot the health-related quality-of-life measurement Medical Outcomes Study SF-36 version 2 Physical Functioning and Role Emotional components, expressed as mean +/- SEM over the treatment period.

[3] = D8, Avacopan 30 mg BID where given
[4] = D15, Avacopan 30 mg BID where given
[5] = D29, Avacopan 30 mg BID where given
[6] = D57, Avacopan 30 mg BID where given
[7] = D85, Avacopan 30 mg BID where given

SMILES	Urine sCD163/creatinine, Geo mean [1, 3]	Urine sCD163/creatinine, Geo mean [1, 4]	Urine sCD163/creatinine, Geo mean [1, 5]	Urine sCD163/creatinine, Geo mean [1, 6]	Urine sCD163/creatinine, Geo mean [1, 7]	Time course of decrease of urine sCD163 (sCD163/creatinine), in words [1]	Disease activity (Birmingham Vasculitis Activity Score), in words ([2]; FIG. 1A)	Health-related quality of life (EQ-5D-5L, SF-36 v2), in words ([2]; FIGS. 1C-1E)	Time course of decrease of urine sCD163 (sCD163/creatinine), in words ([1]; listed as full-dose prednisone)
Cc1ccc(NC(=O)[C@H]2CCCN(C(=O)c3c(C)cccc3F)[C@H]2c2ccc(NC3CCCC3)cc2)cc1C(F)(F)F [Avacopan]	180* ng/mmole	165* ng/mmole	117** ng/mmole	125* ng/mmole	97* ng/mmole	reduced sCD163/creatinine markedly by day 8; also recorded: rapid reduction of sCD163; also recorded: decreased within one week	rapid decrease in diseases activity	significant improvement in health-related quality of life	–
C[C@]12C=CC(=O)C=C1CC[C@@H]1[C@@H]2C(=O)C[C@@]2(C)[C@H]1CC[C@]2(O)C(=O)CO [Placebo + FD Prednisone, Prednisone, reference compound]	300 ng/mmol	249 ng/mmol	220 ng/mmol	116*** ng/mmole	120** ng/mmole	decreased much later (by week 8)	–	–	did not show improvement in urinary sCD163 until day 57
